The molecules below were run against T1, CYP3A4 (Homo sapiens, UniProt P08684) (assay: Inhibition of human recombinant CYP3A4 using DBF as substrate at 3 uM by fluorimetric assay). Details: recombinant CYP3A4, probe DBF.
Type: ADME

T1 sequence (P08684 whole entry): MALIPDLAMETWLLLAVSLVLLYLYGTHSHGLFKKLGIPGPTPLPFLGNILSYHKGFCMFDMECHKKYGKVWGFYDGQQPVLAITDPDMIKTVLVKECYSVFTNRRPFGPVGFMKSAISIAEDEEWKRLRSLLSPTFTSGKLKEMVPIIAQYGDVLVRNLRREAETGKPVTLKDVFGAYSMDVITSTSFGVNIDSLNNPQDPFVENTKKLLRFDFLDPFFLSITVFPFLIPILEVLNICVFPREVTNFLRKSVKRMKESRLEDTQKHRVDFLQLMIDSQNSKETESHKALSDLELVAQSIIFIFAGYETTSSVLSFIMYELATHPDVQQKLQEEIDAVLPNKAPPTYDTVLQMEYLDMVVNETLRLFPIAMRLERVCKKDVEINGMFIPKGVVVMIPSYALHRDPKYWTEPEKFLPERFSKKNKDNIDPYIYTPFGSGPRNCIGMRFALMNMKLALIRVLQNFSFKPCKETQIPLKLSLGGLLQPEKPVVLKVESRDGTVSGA

inhibition at 3 µM	Compound
< 58%	O=C(c1nc(OC(F)(F)F)ccc1-c1ncccn1)N1CC2(CC2)C[C@H]1CNc1ccc(C(F)(F)F)cn1
< 89%	Cc1ccc(-c2nccs2)c(C(=O)N2CC3(CC3)C[C@H]2CNc2ccc(C(F)(F)F)cn2)n1
< 71%	Cc1ccc(OCc2ccccc2)c(C(=O)N2CC3(CC3)C[C@H]2CNc2ccc(C(F)(F)F)cn2)n1
< 47%	O=C(c1ncccc1-c1ncccn1)N1CC2(CC2)C[C@H]1CNc1ccc(C(F)(F)F)cn1
< 85%	Cc1cnn(-c2ccc(C)nc2C(=O)N2CC3(CC3)C[C@H]2CNc2ccc(C(F)(F)F)cn2)c1
< 22%	O=C(c1cc(Cl)ccc1-c1ncccn1)N1CC2(CC2)C[C@H]1CNc1ccc(C(F)(F)F)cn1
< 32%	N#Cc1ccc(-c2ncccn2)c(C(=O)N2CC3(CC3)C[C@H]2CNc2ccc(C(F)(F)F)cn2)c1

What follows are molecules tested against T2, CYP1A2 (Homo sapiens, UniProt P05177) (assay: Inhibition of human recombinant CYP1A2 at 3 uM by fluorimetric assay). Details: not given.
T2 sequence (P05177 whole entry): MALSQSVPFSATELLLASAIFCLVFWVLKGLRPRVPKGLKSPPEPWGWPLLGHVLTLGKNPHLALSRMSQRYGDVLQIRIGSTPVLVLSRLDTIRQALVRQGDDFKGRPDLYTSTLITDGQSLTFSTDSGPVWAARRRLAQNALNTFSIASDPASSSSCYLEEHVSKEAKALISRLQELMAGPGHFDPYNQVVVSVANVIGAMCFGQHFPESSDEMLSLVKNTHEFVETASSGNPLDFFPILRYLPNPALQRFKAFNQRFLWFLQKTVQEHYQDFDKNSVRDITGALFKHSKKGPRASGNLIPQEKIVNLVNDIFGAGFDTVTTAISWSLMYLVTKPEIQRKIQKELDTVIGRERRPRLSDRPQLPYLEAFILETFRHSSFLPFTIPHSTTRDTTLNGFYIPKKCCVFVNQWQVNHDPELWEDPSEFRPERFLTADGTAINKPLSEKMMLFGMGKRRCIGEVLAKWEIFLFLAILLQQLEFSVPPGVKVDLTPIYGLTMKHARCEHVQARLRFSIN
Type: ADME

inhibition at 3 µM	Compound
< 58%	O=C(c1nc(OC(F)(F)F)ccc1-c1ncccn1)N1CC2(CC2)C[C@H]1CNc1ccc(C(F)(F)F)cn1
< 89%	Cc1ccc(-c2nccs2)c(C(=O)N2CC3(CC3)C[C@H]2CNc2ccc(C(F)(F)F)cn2)n1
< 71%	Cc1ccc(OCc2ccccc2)c(C(=O)N2CC3(CC3)C[C@H]2CNc2ccc(C(F)(F)F)cn2)n1
< 47%	O=C(c1ncccc1-c1ncccn1)N1CC2(CC2)C[C@H]1CNc1ccc(C(F)(F)F)cn1
< 85%	Cc1cnn(-c2ccc(C)nc2C(=O)N2CC3(CC3)C[C@H]2CNc2ccc(C(F)(F)F)cn2)c1
< 22%	O=C(c1cc(Cl)ccc1-c1ncccn1)N1CC2(CC2)C[C@H]1CNc1ccc(C(F)(F)F)cn1
< 32%	N#Cc1ccc(-c2ncccn2)c(C(=O)N2CC3(CC3)C[C@H]2CNc2ccc(C(F)(F)F)cn2)c1

What follows are molecules tested against T1, CYP3A4 (assay: Inhibition of human recombinant CYP3A4 using BFC as substrate at 3 uM by fluorimetric assay). Details: recombinant CYP3A4, probe BFC.
Type: ADME

inhibition at 3 µM	Compound
< 58%	O=C(c1nc(OC(F)(F)F)ccc1-c1ncccn1)N1CC2(CC2)C[C@H]1CNc1ccc(C(F)(F)F)cn1
< 89%	Cc1ccc(-c2nccs2)c(C(=O)N2CC3(CC3)C[C@H]2CNc2ccc(C(F)(F)F)cn2)n1
< 71%	Cc1ccc(OCc2ccccc2)c(C(=O)N2CC3(CC3)C[C@H]2CNc2ccc(C(F)(F)F)cn2)n1
< 47%	O=C(c1ncccc1-c1ncccn1)N1CC2(CC2)C[C@H]1CNc1ccc(C(F)(F)F)cn1
< 85%	Cc1cnn(-c2ccc(C)nc2C(=O)N2CC3(CC3)C[C@H]2CNc2ccc(C(F)(F)F)cn2)c1
< 22%	O=C(c1cc(Cl)ccc1-c1ncccn1)N1CC2(CC2)C[C@H]1CNc1ccc(C(F)(F)F)cn1
< 32%	N#Cc1ccc(-c2ncccn2)c(C(=O)N2CC3(CC3)C[C@H]2CNc2ccc(C(F)(F)F)cn2)c1

These molecules were tested against CYP2D6 (Homo sapiens, UniProt P10635) (assay: Inhibition of human recombinant CYP2D6 at 3 uM by fluorimetric assay). Details: not given.
Type: ADME

CYP2D6, sequence (P10635 whole entry): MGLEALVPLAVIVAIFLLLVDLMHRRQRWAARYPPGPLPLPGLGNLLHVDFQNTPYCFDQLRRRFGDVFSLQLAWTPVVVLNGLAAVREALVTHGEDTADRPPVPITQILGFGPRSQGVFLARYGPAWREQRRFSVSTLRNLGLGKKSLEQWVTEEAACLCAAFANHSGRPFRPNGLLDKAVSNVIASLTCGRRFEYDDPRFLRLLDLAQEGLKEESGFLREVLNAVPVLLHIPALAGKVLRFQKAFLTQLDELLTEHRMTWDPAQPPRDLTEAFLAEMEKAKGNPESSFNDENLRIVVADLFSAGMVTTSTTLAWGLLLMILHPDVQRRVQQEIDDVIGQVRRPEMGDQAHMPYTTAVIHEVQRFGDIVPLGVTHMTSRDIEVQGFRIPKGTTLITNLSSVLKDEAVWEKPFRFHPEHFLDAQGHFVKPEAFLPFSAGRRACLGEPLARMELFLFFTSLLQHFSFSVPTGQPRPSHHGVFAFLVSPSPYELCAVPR

inhibition at 3 µM	Compound
< 58%	O=C(c1nc(OC(F)(F)F)ccc1-c1ncccn1)N1CC2(CC2)C[C@H]1CNc1ccc(C(F)(F)F)cn1
< 89%	Cc1ccc(-c2nccs2)c(C(=O)N2CC3(CC3)C[C@H]2CNc2ccc(C(F)(F)F)cn2)n1
< 71%	Cc1ccc(OCc2ccccc2)c(C(=O)N2CC3(CC3)C[C@H]2CNc2ccc(C(F)(F)F)cn2)n1
< 47%	O=C(c1ncccc1-c1ncccn1)N1CC2(CC2)C[C@H]1CNc1ccc(C(F)(F)F)cn1
< 85%	Cc1cnn(-c2ccc(C)nc2C(=O)N2CC3(CC3)C[C@H]2CNc2ccc(C(F)(F)F)cn2)c1
< 22%	O=C(c1cc(Cl)ccc1-c1ncccn1)N1CC2(CC2)C[C@H]1CNc1ccc(C(F)(F)F)cn1
< 32%	N#Cc1ccc(-c2ncccn2)c(C(=O)N2CC3(CC3)C[C@H]2CNc2ccc(C(F)(F)F)cn2)c1

The molecules below were run against CYP2C19 (Homo sapiens, UniProt P33261) (assay: Inhibition of human recombinant CYP2C19 at 3 uM by fluorimetric assay). Details: not given.
Type: ADME

CYP2C19, sequence (P33261 whole entry): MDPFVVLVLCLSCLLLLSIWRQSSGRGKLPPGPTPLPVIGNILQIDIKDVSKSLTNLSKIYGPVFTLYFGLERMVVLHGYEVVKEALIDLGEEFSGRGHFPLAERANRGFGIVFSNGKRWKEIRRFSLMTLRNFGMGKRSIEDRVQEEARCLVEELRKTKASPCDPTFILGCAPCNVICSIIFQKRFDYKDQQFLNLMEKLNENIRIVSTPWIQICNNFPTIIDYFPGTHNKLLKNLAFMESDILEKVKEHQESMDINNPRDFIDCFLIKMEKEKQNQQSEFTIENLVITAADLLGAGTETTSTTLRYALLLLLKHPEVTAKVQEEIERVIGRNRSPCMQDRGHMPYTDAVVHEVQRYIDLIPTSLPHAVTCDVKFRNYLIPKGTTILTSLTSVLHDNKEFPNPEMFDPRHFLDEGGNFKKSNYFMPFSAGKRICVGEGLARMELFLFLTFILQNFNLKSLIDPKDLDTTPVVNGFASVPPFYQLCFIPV

inhibition at 3 µM	Compound
< 58%	O=C(c1nc(OC(F)(F)F)ccc1-c1ncccn1)N1CC2(CC2)C[C@H]1CNc1ccc(C(F)(F)F)cn1
< 89%	Cc1ccc(-c2nccs2)c(C(=O)N2CC3(CC3)C[C@H]2CNc2ccc(C(F)(F)F)cn2)n1
< 71%	Cc1ccc(OCc2ccccc2)c(C(=O)N2CC3(CC3)C[C@H]2CNc2ccc(C(F)(F)F)cn2)n1
< 47%	O=C(c1ncccc1-c1ncccn1)N1CC2(CC2)C[C@H]1CNc1ccc(C(F)(F)F)cn1
< 85%	Cc1cnn(-c2ccc(C)nc2C(=O)N2CC3(CC3)C[C@H]2CNc2ccc(C(F)(F)F)cn2)c1
< 22%	O=C(c1cc(Cl)ccc1-c1ncccn1)N1CC2(CC2)C[C@H]1CNc1ccc(C(F)(F)F)cn1
< 32%	N#Cc1ccc(-c2ncccn2)c(C(=O)N2CC3(CC3)C[C@H]2CNc2ccc(C(F)(F)F)cn2)c1

The molecules below were run against T3, Orexin receptor type 2 (Homo sapiens) (UniProt O43614) (assay: Antagonist activity at human recombinant OX2 receptor expressed in HEK293 cells assessed as OXB-stimulated intracellular calcium mobilization by FLIPR assay). Details: not given.
T3 sequence (whole entry): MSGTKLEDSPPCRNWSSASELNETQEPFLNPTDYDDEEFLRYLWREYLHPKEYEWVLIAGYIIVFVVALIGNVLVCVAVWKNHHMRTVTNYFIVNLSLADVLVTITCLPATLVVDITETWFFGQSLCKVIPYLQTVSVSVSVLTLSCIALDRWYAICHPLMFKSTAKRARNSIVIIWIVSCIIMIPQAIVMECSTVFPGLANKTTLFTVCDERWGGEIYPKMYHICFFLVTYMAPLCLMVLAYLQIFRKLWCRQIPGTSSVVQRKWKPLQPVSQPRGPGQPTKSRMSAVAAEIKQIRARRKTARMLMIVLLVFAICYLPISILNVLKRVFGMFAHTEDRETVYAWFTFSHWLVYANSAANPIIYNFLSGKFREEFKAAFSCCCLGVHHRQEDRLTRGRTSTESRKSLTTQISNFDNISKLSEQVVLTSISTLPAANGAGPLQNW
Type: functional, cell-based

Compound	pKb
Cc1nc(C(=O)N2CCC3(CC3)C[C@H]2CNc2ccc(Cl)cn2)c(-c2ccccc2)s1	< 5
Cc1nc(C(=O)N2CC3(CC3)C[C@H]2CNc2ccc(Cl)cn2)c(-c2ccccc2)s1	7.1
Cc1ccc(-n2nccn2)c(C(=O)N2CCC3(CC3)C[C@H]2CNc2ccc(Cl)cn2)c1	< 5
Cc1ccc(-c2ncccn2)c(C(=O)N2CCC3(CC3)C[C@H]2CNc2ccc(Cl)cn2)c1	< 5
Cc1cnn(-c2ccc(C)nc2C(=O)N2CC3(CC3)C[C@H]2CNc2ccc(C(F)(F)F)cn2)c1	8.3
Cc1cccc(NC[C@@H]2CC3(CC3)CN2C(=O)c2nc(C)sc2-c2ccccc2)n1	7.6
Cc1ccnc(NC[C@@H]2CC3(CC3)CN2C(=O)c2nc(C)sc2-c2ccccc2)n1	7
Cc1nc(C(=O)N2CC3(CC3)C[C@H]2CNc2ncc(Cl)cn2)c(-c2ccccc2)s1	6.8
Cc1nc(C(=O)N2CCC3(CC3)C[C@H]2CNc2ccc(C(F)(F)F)cn2)c(-c2ccccc2)s1	< 5
Cc1ccc(-n2nccn2)c(C(=O)N2CCC3(CC3)C[C@H]2CNc2cccc(C)n2)c1	< 5
Cc1ccc(-n2nccn2)c(C(=O)N2CC3(CC3)C[C@H]2CNc2ccc(Cl)cn2)c1	< 5

Results, then the molecule that gave them:

pKb	Compound
6.9	O=C(c1nc(OC(F)(F)F)ccc1-c1ncccn1)N1CC2(CC2)C[C@H]1CNc1ccc(C(F)(F)F)cn1
8	Cc1ccc(-c2nccs2)c(C(=O)N2CC3(CC3)C[C@H]2CNc2ccc(C(F)(F)F)cn2)n1
8.6	Cc1ccc(OCc2ccccc2)c(C(=O)N2CC3(CC3)C[C@H]2CNc2ccc(C(F)(F)F)cn2)n1
5	O=C(c1ncccc1-c1ncccn1)N1CC2(CC2)C[C@H]1CNc1ccc(C(F)(F)F)cn1
6.6	Cc1ccc(-c2ncccn2)c(C(=O)N2CC3(CC3)C[C@H]2CNc2ccc(C(F)(F)F)cn2)c1
7.2	O=C(c1cc(Cl)ccc1-c1ncccn1)N1CC2(CC2)C[C@H]1CNc1ccc(C(F)(F)F)cn1
8.1	N#Cc1ccc(-c2ncccn2)c(C(=O)N2CC3(CC3)C[C@H]2CNc2ccc(C(F)(F)F)cn2)c1

Each molecule was assayed against T4, Orexin/Hypocretin receptor type 1 (Homo sapiens) (UniProt O43613) (assay: Antagonist activity at human recombinant OX1 receptor expressed in CHO cells assessed as OXA-stimulated intracellular calcium mobilization by FLIPR assay). Details: not given.
T4 sequence (whole entry): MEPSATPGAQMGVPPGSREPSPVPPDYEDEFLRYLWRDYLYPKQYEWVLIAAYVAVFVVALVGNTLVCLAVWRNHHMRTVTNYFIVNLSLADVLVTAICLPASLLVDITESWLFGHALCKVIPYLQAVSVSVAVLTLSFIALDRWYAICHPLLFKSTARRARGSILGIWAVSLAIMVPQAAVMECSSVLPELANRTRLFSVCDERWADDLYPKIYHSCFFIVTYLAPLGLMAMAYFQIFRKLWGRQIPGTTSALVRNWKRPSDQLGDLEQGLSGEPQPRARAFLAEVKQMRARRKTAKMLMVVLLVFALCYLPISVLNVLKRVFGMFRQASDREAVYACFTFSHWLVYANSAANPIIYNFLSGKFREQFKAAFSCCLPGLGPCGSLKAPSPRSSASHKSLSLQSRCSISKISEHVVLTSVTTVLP
Type: functional, cell-based

Compound	pKb
Cc1nc(C(=O)N2CCC3(CC3)C[C@H]2CNc2ccc(Cl)cn2)c(-c2ccccc2)s1	7.9
Cc1nc(C(=O)N2CC3(CC3)C[C@H]2CNc2ccc(Cl)cn2)c(-c2ccccc2)s1	8.3
Cc1ccc(-n2nccn2)c(C(=O)N2CCC3(CC3)C[C@H]2CNc2ccc(Cl)cn2)c1	7.5
Cc1ccc(-c2ncccn2)c(C(=O)N2CCC3(CC3)C[C@H]2CNc2ccc(Cl)cn2)c1	7.6
Cc1cnn(-c2ccc(C)nc2C(=O)N2CC3(CC3)C[C@H]2CNc2ccc(C(F)(F)F)cn2)c1	8.9
Cc1cccc(NC[C@@H]2CC3(CC3)CN2C(=O)c2nc(C)sc2-c2ccccc2)n1	7.3
Cc1ccnc(NC[C@@H]2CC3(CC3)CN2C(=O)c2nc(C)sc2-c2ccccc2)n1	6.1
Cc1nc(C(=O)N2CC3(CC3)C[C@H]2CNc2ncc(Cl)cn2)c(-c2ccccc2)s1	6.8
Cc1nc(C(=O)N2CCC3(CC3)C[C@H]2CNc2ccc(C(F)(F)F)cn2)c(-c2ccccc2)s1	7.7
Cc1ccc(-n2nccn2)c(C(=O)N2CCC3(CC3)C[C@H]2CNc2cccc(C)n2)c1	8.2
Cc1ccc(-n2nccn2)c(C(=O)N2CC3(CC3)C[C@H]2CNc2ccc(Cl)cn2)c1	8.1

Results, then the molecule that gave them:

pKb	Compound
7	O=C(c1nc(OC(F)(F)F)ccc1-c1ncccn1)N1CC2(CC2)C[C@H]1CNc1ccc(C(F)(F)F)cn1
8.6	Cc1ccc(-c2nccs2)c(C(=O)N2CC3(CC3)C[C@H]2CNc2ccc(C(F)(F)F)cn2)n1
8.6	Cc1ccc(OCc2ccccc2)c(C(=O)N2CC3(CC3)C[C@H]2CNc2ccc(C(F)(F)F)cn2)n1
7.7	O=C(c1ncccc1-c1ncccn1)N1CC2(CC2)C[C@H]1CNc1ccc(C(F)(F)F)cn1
8.7	Cc1ccc(-c2ncccn2)c(C(=O)N2CC3(CC3)C[C@H]2CNc2ccc(C(F)(F)F)cn2)c1
8.1	O=C(c1cc(Cl)ccc1-c1ncccn1)N1CC2(CC2)C[C@H]1CNc1ccc(C(F)(F)F)cn1
8	N#Cc1ccc(-c2ncccn2)c(C(=O)N2CC3(CC3)C[C@H]2CNc2ccc(C(F)(F)F)cn2)c1

Each molecule was assayed against CYP2C9 (Homo sapiens, UniProt P11712) (assay: Inhibition of human recombinant CYP2C9 at 3 uM by fluorimetric assay). Details: not given.
Type: ADME

CYP2C9, sequence (P11712 whole entry): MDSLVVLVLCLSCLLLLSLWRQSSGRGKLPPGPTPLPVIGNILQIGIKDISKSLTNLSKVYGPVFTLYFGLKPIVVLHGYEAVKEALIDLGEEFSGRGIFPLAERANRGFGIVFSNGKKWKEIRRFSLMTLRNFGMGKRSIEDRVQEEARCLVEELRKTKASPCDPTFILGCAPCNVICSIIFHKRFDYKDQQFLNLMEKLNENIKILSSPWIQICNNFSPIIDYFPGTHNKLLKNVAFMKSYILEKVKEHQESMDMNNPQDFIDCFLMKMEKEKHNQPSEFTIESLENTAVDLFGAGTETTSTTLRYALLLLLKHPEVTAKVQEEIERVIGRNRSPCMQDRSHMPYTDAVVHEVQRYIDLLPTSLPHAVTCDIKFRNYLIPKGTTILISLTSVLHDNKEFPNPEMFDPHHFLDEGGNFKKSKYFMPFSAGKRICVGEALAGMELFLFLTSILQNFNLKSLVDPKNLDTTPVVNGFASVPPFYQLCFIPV

inhibition at 3 µM	Compound
< 58%	O=C(c1nc(OC(F)(F)F)ccc1-c1ncccn1)N1CC2(CC2)C[C@H]1CNc1ccc(C(F)(F)F)cn1
< 89%	Cc1ccc(-c2nccs2)c(C(=O)N2CC3(CC3)C[C@H]2CNc2ccc(C(F)(F)F)cn2)n1
< 71%	Cc1ccc(OCc2ccccc2)c(C(=O)N2CC3(CC3)C[C@H]2CNc2ccc(C(F)(F)F)cn2)n1
< 47%	O=C(c1ncccc1-c1ncccn1)N1CC2(CC2)C[C@H]1CNc1ccc(C(F)(F)F)cn1
< 85%	Cc1cnn(-c2ccc(C)nc2C(=O)N2CC3(CC3)C[C@H]2CNc2ccc(C(F)(F)F)cn2)c1
< 22%	O=C(c1cc(Cl)ccc1-c1ncccn1)N1CC2(CC2)C[C@H]1CNc1ccc(C(F)(F)F)cn1
< 32%	N#Cc1ccc(-c2ncccn2)c(C(=O)N2CC3(CC3)C[C@H]2CNc2ccc(C(F)(F)F)cn2)c1
